Key:
[1] = Binding assay: competition with ConA-FITC on glucose-terminated magnetic beads; details: relative to ConA; 2.4 μM ConA-FITC, boronic acid 2.5 μM to 20 μM, PBS pH 7.2
Procedure: The binding affinity of boronic acid derivatives to glucose was determined by competition assay using ConcanavalinA (ConA) as the competitive standard, and varying concentrations of the boronic acid derivatives. Carboxy-terminated magnetic beads were activated by suspending the beads in 100 mM 2-(N-morpholino)ethanesulfonic acid (MES) buffer (pH 4.5). Glucosamine (100 mg/mL) was conjugated to the activated magnetic beads using carbodiimide coupling with 1-ethyl-3-(3-dimethylaminopropyl)carbodiimide (EDC) as a crosslinker. The conjugation reaction was carried out in a 96 well plate. The reaction was run for 24 h. The beads were separated by placing the microplate on a magnetic separator and were washed thoroughly with PBS at pH 7.2 to remove unbound glucose, excess EDC, and N-hydroxysulfosuccinimide (Sulfo-NHS).
The glucose terminated beads were co-incubated for 1 h with 2.4 μM ConA (a known binder of carbohydrates) fluorescently tagged with fluorescein isothiocyanate (ConA-FITC), and titrated with concentrations ranging from 2.5 μM to 20 μM of each boronic acid derivative tested. The following controls were used: (A) carboxy-terminated magnetic beads (not conjugated to glucose) were treated with ConA-FITC to determine non-specific binding; and (B) glucose conjugated beads were treated with a high concentration of non-fluorescent ConA to determine maximal binding.
The wells were washed three times with PBS at pH 7.2 to remove unbound boronic acid derivatives and FITC-ConA. The beads were re-suspended in PBS and stirred for 15 min at rt before measuring FITC fluorescence (excitation: 495 nm, top emission: 520 nm; 6 flashes per well; average of n=3 wells in a Flexstation 11^384 microplate reader to quantify the amount of glucose bound to the boronic acids). The fluorescence intensity was measured and used as an indication of the amount of ConA bound to the surface of the beads, or [ConAs]. The ConA-sugar interaction was expected to be inhibited by the boronic acid derivatives, which can bind the sugar molecules and displace the bound ConA-FITC, thereby causing a decrease in fluorescence intensity of the mixture.
The binding constant of the boronic acid derivatives was calculated from the fluorescence intensity. The reduction of fluorescence intensity is related to [ConAs] by Equation 2.
[formula] The relationship between [ConAs] and the amount of boronic acid [BA] is given by Equation 3.
[formula] Simple rearrangement yields Equation 4, from which the ratio of the two equilibrium constants (KConA/KBA) can be derived.
[formula] • The concentration of sugar sites (S1) can be calculated from the intercept of a plot of 1/[ConAs] vs 1/[BA].

HeLa cells = assay: MTT assay for cytotoxicity; details: 2 h
NF-κB = NF-κB assay for inflammation (nuclear translocation of NF-κB, immunocytochemistry, PCC); details: HeLa cells; for Inflammation (PCC) 40 nM / Inflammation (PCC) 80 nM / Inflammation (PCC) 160 nM: 2 h, PCC between nuclear and cytoplasmic fraction of NF-κB
Procedure: 15,000 HeLa cells were plated in 96 well plates the night before the experiments. On the day of the experiments, the cells were treated with the boronic acids (Table 1, below) at three different concentrations (40 nM, 80 nM, and 160 nM) for 2 h. At the end of the incubation, cells were washed with phosphate buffered saline (PBS) and were fixed in 4% paraformaldehyde for 15 min and permeablized with 0.01% Triton X-100 in PBS for 10 min. The cells were washed with PBS three times. Nonspecific sites were blocked with 5% bovine serum albumin (BSA) in PBS and incubated with the Anti-NF-κB for 1 h, followed by incubation with fluorescein isothiocyanate (FITC)-labeled secondary antibody. After washing the cells at the end of the incubation, the cells were treated with 4′,6-diamidino-2-phenylindole (DAPI) for 1 min and kept at 4° C. until further analysis. Images of the cells were acquired with a Beckman-Coulter 100 automated high-throughput microscope system and analyzed using Cytseer software (Vala Sciences, CA). The co-localization of NF-κB was quantified by measuring the PCC between the nuclear and cytoplasmic fraction of the NF-κB molecule. The PCC is a measure of the overlap between the pixel intensities of the nuclear and NF-κB images of the same cell. The PCC values can range from −1 to 1. […] A negative correlation (negative PCC value) indicates an absence of nuclear translocation.

SMILES	Sugar Binding Affinity Log(KaBA/KaConA) [1]	MTT (% Cell Survival) 40 nM (HeLa cells)	MTT (% Cell Survival) 80 nM (HeLa cells)	MTT (% Cell Survival) 160 nM (HeLa cells)	Inflammation (PCC) 40 nM (NF-κB)	Inflammation (PCC) 80 nM (NF-κB)	Inflammation (PCC) 160 nM (NF-κB)	nuclear or cytoplasmic localization of NF-κB (FIG. 4 images) (NF-κB; boronic acids 80 nM, 2 hrs, LPS positive control)
OB(O)c1cccnc1Br [2-bromopyridine-3-boronic acid]	−2.9	102.96%	94.00%	87.88%	−0.0553	−0.0396	0.1494	–
OB(O)c1cccc(Cl)c1 [3-chlorophenylboronic acid]	−1.03	97.1779%	73.129%	38.55%	−0.0824	0.03311	0.3965	–
OB(O)c1ccc(O)cc1 [4-hydroxyphenylboronic acid]	−1.08	203.926%	198.184%	172.8%	−0.0665	−0.1081	0.2007	–
CCCc1ccc(B(O)O)cc1 [4-propylphenylboronic acid]	−0.009	202.674%	202.92%	164.2%	−0.1402	−0.0786	0.1922	–
OB(O)c1ccc(-c2ccccc2)s1 [5-phenyl-2-thienylboronic acid]	−2.3	100.56%	81.24%	86.23%	−0.0211	−0.0701	0.1187	–
O=C(Cl)c1ccc(B2OB(c3ccc(C(=O)Cl)cc3)OB(c3ccc(C(=O)Cl)cc3)O2)cc1 [4-chlorocarbonylphenylboronic anhydride]	−2.08	114.54%	107.21%	79.46%	−0.0664	−0.0012	0.09826	–
CN(C)c1cccc(B(O)O)c1 [3-(N,N-dimethylamino)phenyl boronic acid]	−0.14	123.37%	86.2247%	85.91%	−0.1236	−0.0401	0.1862	–
OB(O)c1ccc(Cl)cc1Cl [2,4-dicholorophenylboronic acid]	−0.93	99.29%	81.59%	79.9%	−0.0502	0.09386	0.3067	–
O=Cc1cc(B(O)O)cs1 [5-formylthiophene-3-boronic acid]	−1.24	86.87%	87.03%	73.80%	−0.0359	0.00225	0.193	–
NC(=O)c1ccc(B(O)O)cc1 [4-aminocarbonylphenylboronic acid]	−1.03	86.57%	97.67%	57.28%	−0.0838	0.01211	0	–
CC(C)(C)Oc1ncc(B(O)O)c(OC(C)(C)C)n1 [2,4-di-tert-butoxypyrimidin-5-ylboronic acid]	0.008	100.46%	90.60%	71.81%	−0.0888	0.03106	0.1726	predominantly cytoplasmic NF-κB
OB(O)c1ccc(Br)nc1 [2-bromopyridine-5-boronic acid]	–	95.1013%	120.589%	35.78%	0.00604	0.078	0.1446	–
CN(C)c1ccc(B(O)O)cc1 [4-(dimethylamino)phenylboronic acid]	–	78.59%	71.75%	51.04%	−0.1318	−0.0051	0.213	–
COc1cccc(OC)c1B(O)O [2,6-dimethoxyphenylboronic acid]	–	92.66%	78.05%	48.60%	−0.0679	0.03888	0.2607	–
OB(O)c1cscc1Br [3-bromothiophene-4-boronic acid]	–	76.45%	95.90%	97.49%	−0.0695	0.1568	0.1528	–
O=Cc1ccc(B(O)O)o1 [5-formyl-2-furanboronic acid]	–	77.18%	94.08%	50.14%	0.00989	−0.0122	0.1132	–
CN(C)S(=O)(=O)c1ccccc1B(O)O [2-(N,N-dimethylsulphamoyl)benzene-boronic acid]	–	74.92%	76.38%	47.32%	−0.1529	−0.0404	0.03422	–
OB(O)c1cccs1 [2-thienylboronic acid]	–	53.48%	75.76%	61.19%	−0.121	−0.0343	0	–

Reference: patent US9278068B2, “Vesicle compositions” (Sensulin LLC, priority 2011, dated 2016)
